Key:
Assay type in all cases: cell-based
TRPA1 [1] = target: T1, TRPA1 (Rattus norvegicus, UniProt Q6RI86, C622S); assay: fura-2 Ca2+ assay in HEK-293 cells transfected with C622S rat TRPA1
T1 construct: mutant rat C622S TRPA1

TRPA1 [2] = target: T2, TRPA1 (Mus musculus, UniProt Q8BLA8); assay: fura-2 Ca2+ assay and whole-cell patch clamp in STC-1 cells; blocked by A967079 and HC030031
T2 construct: endogenous channel in mouse STC-1 cells

TRPA1 [3] = target: T3, TRPA1 (Rattus norvegicus, UniProt Q6RI86); assay: fura-2 Ca2+ assay in HEK-293 cells transfected with rat TRPA1 versus empty vector; loss of response in C622S
T3 construct: wild-type rat TRPA1 (GenBank AY496961.1), 5' fused to YFP
T3 sequence (Q6RI86 whole entry, the tested form may be a part): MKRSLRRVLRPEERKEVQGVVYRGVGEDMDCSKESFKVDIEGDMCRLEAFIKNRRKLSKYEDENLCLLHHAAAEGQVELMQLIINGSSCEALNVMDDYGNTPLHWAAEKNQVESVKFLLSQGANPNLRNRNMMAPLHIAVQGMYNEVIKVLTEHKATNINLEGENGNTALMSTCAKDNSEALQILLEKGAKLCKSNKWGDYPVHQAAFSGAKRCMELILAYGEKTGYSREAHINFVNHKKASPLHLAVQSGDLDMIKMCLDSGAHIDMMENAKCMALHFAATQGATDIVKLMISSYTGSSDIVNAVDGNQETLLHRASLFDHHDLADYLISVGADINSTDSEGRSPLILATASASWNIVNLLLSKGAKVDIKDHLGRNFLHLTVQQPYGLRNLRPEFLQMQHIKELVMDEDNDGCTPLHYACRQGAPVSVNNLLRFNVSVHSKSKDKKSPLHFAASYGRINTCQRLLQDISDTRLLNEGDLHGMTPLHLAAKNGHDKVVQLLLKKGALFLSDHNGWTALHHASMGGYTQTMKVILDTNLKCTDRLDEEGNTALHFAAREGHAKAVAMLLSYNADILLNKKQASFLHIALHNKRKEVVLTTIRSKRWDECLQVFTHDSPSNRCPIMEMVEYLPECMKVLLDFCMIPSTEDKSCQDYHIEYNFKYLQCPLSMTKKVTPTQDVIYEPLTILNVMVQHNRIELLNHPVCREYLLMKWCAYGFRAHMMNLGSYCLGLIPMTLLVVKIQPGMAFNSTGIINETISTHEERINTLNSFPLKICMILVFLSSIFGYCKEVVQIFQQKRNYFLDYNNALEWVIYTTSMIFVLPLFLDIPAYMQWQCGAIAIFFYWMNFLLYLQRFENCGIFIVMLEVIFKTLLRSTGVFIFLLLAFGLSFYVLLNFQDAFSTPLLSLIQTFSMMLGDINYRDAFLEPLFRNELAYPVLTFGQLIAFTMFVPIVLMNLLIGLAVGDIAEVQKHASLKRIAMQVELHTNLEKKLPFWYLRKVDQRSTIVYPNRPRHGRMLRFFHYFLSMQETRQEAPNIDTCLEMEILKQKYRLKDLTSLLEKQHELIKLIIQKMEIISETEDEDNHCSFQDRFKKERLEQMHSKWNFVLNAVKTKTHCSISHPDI

T2 sequence (Q8BLA8 whole entry): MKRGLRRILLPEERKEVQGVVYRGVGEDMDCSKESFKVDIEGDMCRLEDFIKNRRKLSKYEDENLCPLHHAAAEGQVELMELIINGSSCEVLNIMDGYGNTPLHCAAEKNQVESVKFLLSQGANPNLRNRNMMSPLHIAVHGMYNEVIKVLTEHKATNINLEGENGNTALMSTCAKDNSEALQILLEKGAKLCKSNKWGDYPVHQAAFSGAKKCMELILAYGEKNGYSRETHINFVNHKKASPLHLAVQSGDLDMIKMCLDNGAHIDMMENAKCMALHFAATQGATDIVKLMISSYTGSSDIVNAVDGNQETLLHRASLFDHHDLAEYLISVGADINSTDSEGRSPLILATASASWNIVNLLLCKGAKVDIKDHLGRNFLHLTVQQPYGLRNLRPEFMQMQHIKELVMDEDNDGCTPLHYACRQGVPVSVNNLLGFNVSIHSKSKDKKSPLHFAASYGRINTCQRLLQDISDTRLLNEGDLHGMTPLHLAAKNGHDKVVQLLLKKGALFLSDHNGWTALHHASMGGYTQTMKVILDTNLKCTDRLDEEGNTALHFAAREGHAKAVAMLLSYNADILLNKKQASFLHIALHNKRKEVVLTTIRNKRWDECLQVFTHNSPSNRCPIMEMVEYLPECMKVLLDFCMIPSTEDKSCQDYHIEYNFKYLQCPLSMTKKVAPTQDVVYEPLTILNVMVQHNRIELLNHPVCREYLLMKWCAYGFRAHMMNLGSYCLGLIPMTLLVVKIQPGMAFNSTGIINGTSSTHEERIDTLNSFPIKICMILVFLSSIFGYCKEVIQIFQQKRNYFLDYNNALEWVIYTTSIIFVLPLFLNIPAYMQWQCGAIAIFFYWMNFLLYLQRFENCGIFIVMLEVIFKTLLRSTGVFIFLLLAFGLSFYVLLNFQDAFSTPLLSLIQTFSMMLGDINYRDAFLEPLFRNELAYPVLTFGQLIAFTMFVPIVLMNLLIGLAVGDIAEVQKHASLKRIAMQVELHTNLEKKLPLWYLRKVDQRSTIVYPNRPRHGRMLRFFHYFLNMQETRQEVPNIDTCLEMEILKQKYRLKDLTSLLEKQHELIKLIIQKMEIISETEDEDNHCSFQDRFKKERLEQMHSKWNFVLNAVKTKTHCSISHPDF
T1 sequence (Q6RI86 whole entry C622S): as the sequence (Q6RI86 whole entry, the tested form may be a part) above, with C622S counted along it

Row | EC50 (TRPA1 [2]) [nM] | SMILES | fura-2 Ca2+ assay in HEK-293 cells transfected with C622S rat TRPA1 (TRPA1 [1]) | fura-2 Ca2+ assay in HEK-293 cells transfected with rat TRPA1 versus empty vecto (TRPA1 [3])
1 | ~200 | CC1(C)c2c([nH]c3ccc(Cl)cc23)C2C=CC1C2 (racemic) [JWU-A021] | mutant C622S rat TRPA1 cDNA responded to JWU-A021 in a manner nearly identical to that of cells transfected with WT | 
2 |  | C=CCN=C=S [AITC, allyl isothiocyanate] |  | the electrophile AITC must covalently modify C622 in order to fully activate the channel
